According to patent publication US20230085307A1, “PYRIDAZINONE COMPOUND AND HERBICIDE” (NISSAN CHEMICAL CORPORATION, priority 2019, published 2023):

What was measured:
[1] = tested on: Japanese bulrush; test: Test Example 2: herbicidal activity, application during weed generation under submerged conditions (Table 17, symbol B); format: in vivo, Japanese bulrush (Schoenoplectus juncoides); conditions: AAH 320 g/ha; application during weed generation, submerged conditions
Outline: (§1)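 Effect on each weed is rated three weeks post-treatment, using the same scoring criteria as the preceding test. Plants grow from mixed-sown seed in flooded alluvial soil (4 cm water) at 25° C. to 30° C., and are treated at one to two leaves with diluted emulsion dropped onto the water.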

[2] = tested on: chickweed; test: Test Example 4: herbicidal effect by soil treatment (Table 19, symbol P); format: in vivo, common chickweed (Stellaria media); conditions: amount of applied herbicide 320 g/ha
Outline: (§2)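 Scoring uses the grading scale of an earlier test, three weeks post-application. Treatment consists of spraying a diluted emulsion formulation across the surface of sterilized diluvial soil in which seeds are buried near 1.5 cm deep; boxes are kept in a greenhouse between 25° C. and 30° C.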

[3] = tested on: late watergrass; test: Test Example 2: herbicidal activity, application during weed generation under submerged conditions (Table 17, symbol A); format: in vivo, late watergrass (Echinochloa oryzicola); conditions: AAH 320 g/ha; application during weed generation, submerged conditions
Outline: as §1

[4] = tested on: chickweed; test: Test Example 5: herbicidal effect by foliage application, plastic box (Table 20, symbol P); format: in vivo, common chickweed (Stellaria media); conditions: foliage application, 320 g/ha, three weeks after application
Outline: (§3)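 Post-emergence foliar test in sterilized diluvial soil. Compound applied as water-diluted emulsion at a predetermined rate to 14-day-old plants; evaluation at three weeks.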

[5] = tested on: southern crabgrass; test: Test Example 5: herbicidal effect by foliage application, plastic box (Table 20, symbol F); format: in vivo, southern crabgrass (Digitaria ciliaris); conditions: foliage application, 320 g/ha, three weeks after application
Outline: as §3

[6] = tested on: velvetleaf; test: Test Example 4: herbicidal effect by soil treatment (Table 19, symbol M); format: in vivo, velvetleaf (Abutilon theophrasti); conditions: amount of applied herbicide 320 g/ha
Outline: as §2

[7] = tested on: persian speedwell; test: Test Example 4: herbicidal effect by soil treatment (Table 19, symbol R); format: in vivo, Persian speedwell (Veronica persica); conditions: amount of applied herbicide 320 g/ha
Outline: as §2

[8] = tested on: lambsquarters; test: Test Example 4: herbicidal effect by soil treatment (Table 19, symbol O); format: in vivo, lambsquarters (Chenopodium album); conditions: amount of applied herbicide 320 g/ha
Outline: as §2

[9] = tested on: oval-leafed pondweed; test: Test Example 1: herbicidal activity, application before weed generation under submerged conditions (Table 16, symbol C); format: in vivo, oval-leafed pondweed (Monochoria vaginalis); conditions: amount of applied herbicide 320 g/ha
Outline: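 Alluvial soil was flooded to 4 cm depth, weed seeds were sown mixed and 2.5-leaf rice seedlings were transplanted. On sowing day, the compound's emulsion, diluted in water to a set dose, was applied to the water surface. Plants grew at 25–30 °C and were scored 0–5 after three weeks.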

[10] = tested on: wild oat; test: Test Example 5: herbicidal effect by foliage application, plastic box (Table 20, symbol I); format: in vivo, wild oat (Avena fatua); conditions: foliage application, 320 g/ha, three weeks after application
Outline: as §3

[11] = tested on: wild oat; test: Test Example 4: herbicidal effect by soil treatment (Table 19, symbol I); format: in vivo, wild oat (Avena fatua); conditions: amount of applied herbicide 320 g/ha
Outline: as §2

[12] = tested on: oval-leafed pondweed; test: Test Example 2: herbicidal activity, application during weed generation under submerged conditions (Table 17, symbol C); format: in vivo, oval-leafed pondweed (Monochoria vaginalis); conditions: AAH 320 g/ha; application during weed generation, submerged conditions
Outline: as §1

[13] = tested on: Italian ryegrass; test: Test Example 4: herbicidal effect by soil treatment (Table 19, symbol K); format: in vivo, Italian ryegrass (Lolium multiflorum); conditions: amount of applied herbicide 320 g/ha
Outline: as §2

[14] = tested on: barnyard grass; test: Test Example 4: herbicidal effect by soil treatment (Table 19, symbol H); format: in vivo, barnyard grass (Echinochloa crus-galli); conditions: amount of applied herbicide 320 g/ha
Outline: as §2

[15] = tested on: windgrass; test: Test Example 4: herbicidal effect by soil treatment (Table 19, symbol L); format: in vivo, windgrass (Apera spica-venti); conditions: amount of applied herbicide 320 g/ha
Outline: as §2

Structure (SMILES)	herbicidal effect rating, B: Japanese bulrush [1]	P: chickweed, herbicidal effect grade [2]	herbicidal effect rating, A: late watergrass [3]	P: chickweed, herbicidal effect grade [4]	F: southern crabgrass, herbicidal effect grade [5]	M: velvetleaf, herbicidal effect grade [6]	R: persian speedwell, herbicidal effect grade [7]	O: lambsquarters, herbicidal effect grade [8]	Herbicidal effect, C: oval-leafed pondweed [9]	I: wild oat, herbicidal effect grade [10]	I: wild oat, herbicidal effect grade [11]	herbicidal effect rating, C: oval-leafed pondweed [12]	K: Italian ryegrass, herbicidal effect grade [13]	H: barnyard grass, herbicidal effect grade [14]	L: windgrass, herbicidal effect grade [15]	herbicidal effect on southern crabgrass (F) [5]	herbicidal effect on wild oat (I) [10]	further results
COc1cc(F)ccc1-c1sc2cc(Cl)ccc2c1-c1c(O)c(C)nn(C)c1=O [3-043]	0 (Herbicidal rate of 5% or less (almost no effect))	4 (Herbicidal rate of 70% or more and less than 90%)	3 (Herbicidal rate of 40% or more and less than 70%)	5 (Herbicidal rate of 90% or more (almost completely withered))	0 (Herbicidal rate of 5% or less (almost no effect))	3 (Herbicidal rate of 40% or more and less than 70%)	3 (Herbicidal rate of 40% or more and less than 70%)	5 (Herbicidal rate of 90% or more (almost completely withered))	2 (Herbicidal rate of 20% or more and less than 40%)	4 (Herbicidal rate of 70% or more and less than 90%)	0 (Herbicidal rate of 5% or less (almost no effect))	0 (Herbicidal rate of 5% or less (almost no effect))	1 (Herbicidal rate of 5% or more and less than 20%)	4 (Herbicidal rate of 70% or more and less than 90%)				
CCCOc1ccc2c(-c3c(O)c(C)nn(C)c3=O)c(-c3ccccc3OC)sc2c1 [3-099]	4 (Herbicidal rate of 70% or more and less than 90%)	3 (Herbicidal rate of 40% or more and less than 70%)	3 (Herbicidal rate of 40% or more and less than 70%)	5 (Herbicidal rate of 90% or more (almost completely withered))	5 (Herbicidal rate of 90% or more (almost completely withered))	3 (Herbicidal rate of 40% or more and less than 70%)	4 (Herbicidal rate of 70% or more and less than 90%)	5 (Herbicidal rate of 90% or more (almost completely withered))	5 (Herbicidal rate of 90% or more (almost completely withered))	2 (Herbicidal rate of 20% or more and less than 40%)	0 (Herbicidal rate of 5% or less (almost no effect))	3 (Herbicidal rate of 40% or more and less than 70%)	5 (Herbicidal rate of 90% or more (almost completely withered))	4 (Herbicidal rate of 70% or more and less than 90%)				
COc1ccccc1-c1sc2cc(OCC3CCCO3)ccc2c1-c1c(O)c(C)nn(C)c1=O (stereo not drawn) [3-133]	3 (Herbicidal rate of 40% or more and less than 70%)		2 (Herbicidal rate of 20% or more and less than 40%)	5 (Herbicidal rate of 90% or more (almost completely withered))	4 (Herbicidal rate of 70% or more and less than 90%)				4 (Herbicidal rate of 70% or more and less than 90%)	4 (Herbicidal rate of 70% or more and less than 90%)		1 (Herbicidal rate of 5% or more and less than 20%)						Herbicidal effect by soil treatment, P: chickweed [2]: 4 (Herbicidal rate of 70% or more and less than 90%); Herbicidal effect by soil treatment, L: windgrass [15]: 5 (Herbicidal rate of 90% or more (almost completely withered)); Herbicidal effect by soil treatment, M: velvetleaf [6]: 1 (Herbicidal rate of 5% or more and less than 20%); Herbicidal effect by soil treatment, O: lambsquarters [8]: 5 (Herbicidal rate of 90% or more (almost completely withered)); Herbicidal effect by soil treatment, I: wild oat [11]: 1 (Herbicidal rate of 5% or more and less than 20%); Herbicidal effect by soil treatment, K: Italian ryegrass [13]: 5 (Herbicidal rate of 90% or more (almost completely withered)); Herbicidal effect by soil treatment, H: barnyard grass [14]: 1 (Herbicidal rate of 5% or more and less than 20%)
COc1ccccc1-c1sc2cc(C)c(C)cc2c1-c1c(O)c(C)nn(C)c1=O [5-090]	2 (Herbicidal rate of 20% or more and less than 40%)	1 (Herbicidal rate of 5% or more and less than 20%)	0 (Herbicidal rate of 5% or less (almost no effect))			0 (Herbicidal rate of 5% or less (almost no effect))	1 (Herbicidal rate of 5% or more and less than 20%)	0 (Herbicidal rate of 5% or less (almost no effect))	3 (Herbicidal rate of 40% or more and less than 70%)		0 (Herbicidal rate of 5% or less (almost no effect))	0 (Herbicidal rate of 5% or less (almost no effect))	5 (Herbicidal rate of 90% or more (almost completely withered))	0 (Herbicidal rate of 5% or less (almost no effect))	3 (Herbicidal rate of 40% or more and less than 70%)	1 (Herbicidal rate of 5% or more and less than 20%)	0 (Herbicidal rate of 5% or less (almost no effect))	
CCCC(=O)Oc1c(C)nn(C)c(=O)c1-c1c(-c2ccccc2OCC)sc2cc(C)c(C)cc12 [5-095]	4 (Herbicidal rate of 70% or more and less than 90%)	3 (Herbicidal rate of 40% or more and less than 70%)	4 (Herbicidal rate of 70% or more and less than 90%)			0 (Herbicidal rate of 5% or less (almost no effect))	3 (Herbicidal rate of 40% or more and less than 70%)	0 (Herbicidal rate of 5% or less (almost no effect))	4 (Herbicidal rate of 70% or more and less than 90%)		0 (Herbicidal rate of 5% or less (almost no effect))	4 (Herbicidal rate of 70% or more and less than 90%)	0 (Herbicidal rate of 5% or less (almost no effect))	0 (Herbicidal rate of 5% or less (almost no effect))	0 (Herbicidal rate of 5% or less (almost no effect))	5 (Herbicidal rate of 90% or more (almost completely withered))	3 (Herbicidal rate of 40% or more and less than 70%)	
CCOc1cc(F)ccc1-c1sc2cc(C)c(C)cc2c1-c1c(O)c(C)nn(C)c1=O [5-103]	3 (Herbicidal rate of 40% or more and less than 70%)	3 (Herbicidal rate of 40% or more and less than 70%)	2 (Herbicidal rate of 20% or more and less than 40%)			1 (Herbicidal rate of 5% or more and less than 20%)	4 (Herbicidal rate of 70% or more and less than 90%)	2 (Herbicidal rate of 20% or more and less than 40%)	4 (Herbicidal rate of 70% or more and less than 90%)		0 (Herbicidal rate of 5% or less (almost no effect))	3 (Herbicidal rate of 40% or more and less than 70%)	1 (Herbicidal rate of 5% or more and less than 20%)	1 (Herbicidal rate of 5% or more and less than 20%)	3 (Herbicidal rate of 40% or more and less than 70%)	5 (Herbicidal rate of 90% or more (almost completely withered))	4 (Herbicidal rate of 70% or more and less than 90%)	
